Experiments:
[1] = system: colon cancer cells HML58-3; assay: Cell count by WST-8 method (cytotoxicity); type: cell-based; details: 10 μM of sample, cultured for 4 days, HML58-3 cells
Text: (§1) Hattori et al.). In the evaluation system, a vector in which a secretory luciferase gene was ligated in the downstream of the endogenous promoter CpG island region was introduced into colon cancer cells. When inhibitions of DNA methyltransferase (DNMT) or other DNA methylation maintenance mechanism occur, C-methylation of the promoter CpG island decreases and secretory luciferase is expressed. Since the luciferase is secretory type, it is a screening system for DNMT inhibitory activity by which the assessment can be conducted easily by collecting cell supernatant and adding the substrate of luciferin. That is, on the day before the sample addition, colon cancer cells HML58-3 that had been genetically modified were seeded in a 96-well cell culture plate. 10 μM of each sample was added to each of them, and cultured for 4 days. On day 5, the cell supernatant was collected and luciferase activity was determined. In addition, cell account for each sample was determined according to WST-8 method.

[2] = Distribution coefficient log P (n-octanol/PBS); type: physicochemical
Text: The separation systems of silica gel column, separation yields, data obtained from instrumental analysis and distribution coefficients of the compounds (A) to (E) which are 5′-position dibenzyl monophosphates of 5-azacytidines synthesized according to the above synthetic methods A or B are shown as below.

[3] = system: DNA methyltransferase (DNMT); assay: Screening system for DNMT inhibitory activity (secretory luciferase reporter in HML58-3 cells); type: cell-based; details: 10 μM of sample, cultured for 4 days, cell supernatant on day 5, HML58-3 cells
Text: The screening system for assessment of DNMT inhibitory activity used for 5′-position dibenzyl monophosphate derivatives of 5-azacytidine and its 2′-deoxy form is the evaluation system which we have developed recently (Epigenetics, 2016, Dec 9:0: Establishment of a high-throughput detection system for DNA demethylating agents, E. Okochi-Takada, N. Hattori et al.). It is a simple screening system for assessment of DNMT inhibitory activity which uses genetically modified colorectal cancer cells, wherein […] luciferase can be expressed when 5-position methylation of cytosine ring in expressed gene promoter region is inhibited by inhibiting DNA methyltransferase (DNMT).
The screening system for assessment of DNMT inhibitory activity used for 5′-position dibenzyl monophosphate derivatives of 5-azacytidine and its 2′-deoxy form is the evaluation system which we have developed recently (Epigenetics, 2016, Dec 9:0: Establishment of a high-throughput detection system for DNA demethylating agents, E. Okochi-Takada, N.
as §1

[4] = Body weight / safety in HCT116 cell-transplanted mouse model; type: in vivo, nude mice; details: intraperitoneal, twice a week, 6 times in total; 5.5, 11 and 22 mg/kg; observed until 28th day
Method: (§2) In vivo assessment In order to investigate the antitumor activity of 5′-position dibenzyl monophosphate derivatives of 5-azacytidine and its 2′-deoxy form, a HCT116 cell-transplanted mouse model derived from human colon cancer was used. After nurturing nude mice (female, 5 weeks old), 5×10^6 cells were transplanted subcutaneously into right flank. From the grouping date, samples in various concentrations (DMSO solution) were administered intraperitoneally for 6 times in total, at a frequency of twice a week. The observation was performed until the 28th day after grouping, during which body weight and tumor diameter were measured at a frequency of once a week.

[5] = system: HCT116 cell (human colon cancer); assay: Antitumor activity in HCT116 cell-transplanted mouse model; type: in vivo, nude mice; details: intraperitoneal, twice a week, 6 times in total; 5.5, 11 and 22 mg/kg; observed until 28th day; vs vehicle (DMSO)
Method: as §2

| Substance | Cytotoxicity (cell count, WST-8 method) [1] | Distribution coefficient log P [2] | Luciferase activity (DNMT inhibition) [3] | Safety / change in body weight [4] | Antitumor activity (tumor volume) [5] |
| --- | --- | --- | --- | --- | --- |
| O,O′-Di(4-chloro)benzyl 5-aza-2′-deoxycytidylate [Compound (E)] | low | 2.44 | very strong luciferase activity |  |  |
| O,O′-Di(4-fluoro)benzyl 5-aza-2′-deoxycytidylate [Compound (D)] | low | 1.40 | very strong luciferase activity | highly safe | dose-dependent antitumor activity |
| O,O′-Di(4-methyl)benzyl 5-aza-2′-deoxycytidylate [Compound (C)] | low |  | very strong luciferase activity |  |  |
| O,O′-Dibenzyl 5-aza-2′-deoxycytidylate [Compound (B)] | low | 1.15 | very strong luciferase activity |  |  |
| O,O′-Dibenzyl 5-azacytidylate [Compound (A)] |  | 0.83 |  |  |  |

From US11173174B2, “DNMT inhibitor as solid tumor therapeutic drug” (OHARA PHARMACEUTICAL CO., LTD., priority 2017, dated 2021)
